Measurements published in patent US20220144848A1, “SUBSTITUTED OXOPYRIDINE DERIVATIVES” (Bayer Aktiengesellschaft, priority 2018, published 2022).

Key:
human plasma kallikrein = molecular target: T1, human plasma kallikrein (Homo sapiens, UniProt P03952); experiment: Determination of the plasma kallikrein activity (fluorogenic peptide substrate H-Pro-Phe-Arg-AMC); assay type: biochemical; conditions: plasma kallikrein from Kordia, 15 min preincubation, 30 min at 22° C., fluorescence; some as mean values from multiple determinations
T1 construct: purchased Kordia
T1 sequence (P03952 391-638 limits assumed): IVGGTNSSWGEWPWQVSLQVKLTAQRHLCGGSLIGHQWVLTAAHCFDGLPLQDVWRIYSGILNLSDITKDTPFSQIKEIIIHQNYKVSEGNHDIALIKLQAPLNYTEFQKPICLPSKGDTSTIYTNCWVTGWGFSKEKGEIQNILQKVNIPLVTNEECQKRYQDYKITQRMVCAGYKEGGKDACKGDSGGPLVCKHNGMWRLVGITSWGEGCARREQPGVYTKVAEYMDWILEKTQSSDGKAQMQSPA
T1 sequence (P03952 20-390 partner limits assumed): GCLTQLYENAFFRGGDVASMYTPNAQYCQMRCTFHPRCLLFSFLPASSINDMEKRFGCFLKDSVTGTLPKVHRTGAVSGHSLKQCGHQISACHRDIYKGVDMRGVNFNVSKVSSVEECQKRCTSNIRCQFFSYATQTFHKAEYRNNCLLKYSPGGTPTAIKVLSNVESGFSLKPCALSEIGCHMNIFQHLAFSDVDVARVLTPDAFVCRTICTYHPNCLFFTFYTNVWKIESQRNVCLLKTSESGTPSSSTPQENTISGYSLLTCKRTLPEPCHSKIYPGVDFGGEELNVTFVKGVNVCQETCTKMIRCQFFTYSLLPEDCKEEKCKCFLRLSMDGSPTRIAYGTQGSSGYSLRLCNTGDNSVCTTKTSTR
Method: (§1) To determine the plasma kallikrein inhibition of the substances according to the invention, a biochemical test system is used which utilizes the reaction of a peptidic plasma kallikrein substrate to determine the enzymatic activity of human plasma kallikrein. Here, plasma kallikrein cleaves from the peptidic plasma kallikrein substrate the C-terminal aminomethylcoumarin (AMC), the fluorescence of which is measured. The determinations are carried out in microtitre plates.
Test substances are dissolved in dimethyl sulfoxide and serially diluted in dimethyl sulfoxide (3000 μM to 0.0078 μM; resulting final concentrations in the test: 50 μM to 0.00013 μM). In each case 1 μl of the diluted substance solutions is placed into the wells of white microtitre plates from Greiner (384 wells). 20 μl of assay buffer (50 mM Tris/HCl pH 7.4; 100 mM sodium chloride solution; 5 mM of calcium chloride solution; 0.1% of bovine serum albumin) and 20 μl of plasma kallikrein from Kordia (0.6 nM in assay buffer) are then added successively. After 15 min of incubation, the enzyme reaction is started by addition of 20 μl of the substrate H-Pro-Phe-Arg-AMC dissolved in assay buffer (10 μM in assay buffer) from Bachem, the mixture is incubated at room temperature (22° C.) for 30 min and fluorescence is then measured (excitation: 360 nm, emission: 460 nm). The measured emissions of the test batches with test substance are compared to those of control batches without test substance (only dimethyl sulfoxide instead of test substance in dimethyl sulfoxide), and IC50 values are calculated from the concentration/activity relationships. Activity data from this test are listed in Table B below (some as mean values from multiple independent individual determinations): […]

human factor XIa = molecular target: T2, human factor XIa (Homo sapiens, UniProt P03951); experiment: Measurement of FXIa inhibition (fluorogenic peptide substrate Boc-Glu(OBzl)-Ala-Arg-AMC); assay type: biochemical; conditions: factor XIa from Kordia, 15 min preincubation, 30 min at 22° C., fluorescence; some as mean values from multiple determinations
T2 construct: purchased Kordia
T2 sequence (P03951 388-625 limits assumed): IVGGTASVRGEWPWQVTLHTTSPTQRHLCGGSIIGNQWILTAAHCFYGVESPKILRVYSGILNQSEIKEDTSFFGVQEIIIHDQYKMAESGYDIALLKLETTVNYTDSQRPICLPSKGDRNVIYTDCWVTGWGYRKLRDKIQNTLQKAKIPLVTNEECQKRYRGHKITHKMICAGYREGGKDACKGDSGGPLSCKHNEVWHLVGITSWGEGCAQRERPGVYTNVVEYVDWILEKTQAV
T2 sequence (P03951 19-387 partner limits assumed): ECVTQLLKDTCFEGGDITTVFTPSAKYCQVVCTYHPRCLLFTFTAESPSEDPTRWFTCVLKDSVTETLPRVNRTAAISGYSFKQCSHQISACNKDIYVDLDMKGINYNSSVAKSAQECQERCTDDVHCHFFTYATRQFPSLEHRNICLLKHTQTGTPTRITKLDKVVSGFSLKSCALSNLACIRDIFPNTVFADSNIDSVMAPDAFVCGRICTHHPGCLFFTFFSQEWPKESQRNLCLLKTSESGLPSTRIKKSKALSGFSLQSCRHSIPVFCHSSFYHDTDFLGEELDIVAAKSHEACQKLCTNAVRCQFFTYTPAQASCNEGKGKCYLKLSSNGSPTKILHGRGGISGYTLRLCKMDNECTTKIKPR
Method: as §1, with “The factor XIa” for “To determine the plasma kallikrein”, “invention is determined using” for “invention,”, “system” for “system is used”, “factor XIa” for “plasma kallikrein”, “factor XIa.” for “plasma kallikrein.”
Test substances are dissolved in dimethyl sulfoxide and serially diluted in dimethyl sulfoxide (3000 μM to 0.0078 μM; resulting final concentrations in the test: 50 μM to 0.00013 μM). In each case 1 μl of the diluted substance solutions is placed into the wells of white microtitre plates from Greiner (384 wells). 20 μl of assay buffer (50 mM of Tris/HCl pH 7.4; 100 mM of sodium chloride; 5 mM of calcium chloride; 0.1% of bovine serum albumin) and 20 μl of factor XIa from Kordia (0.45 nM in assay buffer) are then added successively. After 15 min of incubation, the enzyme reaction is started by addition of 20 μl of the factor XIa substrate Boc-Glu(OBzl)-Ala-Arg-AMC dissolved in assay buffer (10 μM in assay buffer) from Bachem, the mixture is incubated at room temperature (22° C.) for 30 min and fluorescence is then measured (excitation: 360 nm, emission: 460 nm). The measured emissions of the test batches with test substance are compared to those of control batches without test substance (only dimethyl sulfoxide instead of test substance in dimethyl sulfoxide), and IC50 values are calculated from the concentration/activity relationships.

Row | Structure (SMILES) | IC50 (human plasma kallikrein) [µM] | IC50 (human factor XIa) [µM]
1 | C[C@@H]1Cc2ccc(Cl)cc2-c2cc(=O)n([C@@H](CCOC3CC3)C(=O)Nc3ccc(C(N)=O)cc3)cc2CO1 (single isomer, unassigned) [Example 27] | 0.071 | 0.0066
2 | CC[C@@H](C(=O)Nc1ccc(C(N)=O)cc1)n1cc2c(cc1=O)-c1c(ccc(Cl)c1F)C[C@@H](C)OC2 (single isomer, unassigned) [Example 28] | 0.19 | 0.012
3 | CO[C@@H](C)C[C@@H](C(=O)Nc1ccc(C(N)=O)cc1)n1cc2c(cc1=O)-c1c(ccc(Cl)c1F)C[C@@H](C)OC2 (single isomer, unassigned) [Example 29] | 0.047 | 0.0016
4 | CC[C@@H]1Cc2ccc(Cl)cc2-c2cc(=O)n([C@@H](C[C@@H]3CCCCO3)C(=O)Nc3ccc(C(N)=O)c(F)c3)cc2CO1 (single isomer, unassigned) [Example 31] | 0.98 | 0.013
5 | NC(=O)c1ccc(NC(=O)[C@H](C[C@@H]2CCCCO2)n2cc3c(cc2=O)-c2cc(Cl)ccc2C[C@@H](CO)OC3)cc1F (single isomer, unassigned) [Example 33] | 0.48 | 0.0091
6 | NC(=O)c1ccc(NC(=O)[C@H](C[C@@H]2CCCCO2)n2cc3c(cc2=O)-c2cc(Cl)ccc2C[C@@H](CO)OC3)cc1 (single isomer, unassigned) [Example 35] | 0.17 | 0.0021
7 | NC(=O)c1ccc(NC(=O)[C@H](C[C@@H]2COCCO2)n2cc3c(cc2=O)-c2cc(Cl)ccc2C[C@@H](CO)OC3)cc1 (single isomer, unassigned) [Example 37] | 0.32 | 0.006
8 | CC(C)[C@@H]1Cc2ccc(Cl)cc2-c2cc(=O)n([C@@H](C[C@@H]3COCCO3)C(=O)Nc3ccc(C(N)=O)c(F)c3)cc2CO1 (single isomer, unassigned) [Example 41] | 1.6 | 0.01
9 | CC(C)[C@@H]1Cc2ccc(Cl)cc2-c2cc(=O)n([C@@H](C[C@@H]3COCCO3)C(=O)Nc3ccc(C(N)=O)cc3)cc2CO1 (single isomer, unassigned) [Example 43] | 0.38 | 0.0017
10 | CC(C)[C@@H]1Cc2ccc(Cl)cc2-c2cc(=O)n([C@@H](C[C@@H]3COCCO3)C(=O)Nc3ccc4nn(C)nc4c3)cc2CO1 (single isomer, unassigned) [Example 45] | 0.66 | 0.017
11 | CC[C@@H](C(=O)Nc1ccc(C(N)=O)c(F)c1)n1cc2c(cc1=O)-c1cc(Cl)ccc1C[C@@H](C(F)F)OC2 (single isomer, unassigned) [Example 47] | 1.5 | 0.056
12 | NC(=O)c1ccc(NC(=O)[C@H](C[C@@H]2CCCCO2)n2cc3c(cc2=O)-c2cc(Cl)ccc2C[C@@H](C(F)F)OC3)cc1F (single isomer, unassigned) [Example 49] | 0.37 | 0.0047
13 | NC(=O)c1ccc(NC(=O)[C@H](C[C@@H]2CCCCO2)n2cc3c(cc2=O)-c2cc(Cl)ccc2C[C@@H](C(F)(F)F)OC3)cc1F (single isomer, unassigned) [Example 51] | 0.36 | 0.0042
14 | NC(=O)c1ccc(NC(=O)[C@H](C[C@@H]2CCCCO2)n2cc3c(cc2=O)-c2cc(Cl)ccc2C[C@@H](C(F)(F)F)OC3)cn1 (single isomer, unassigned) [Example 53] | 0.3 | 0.0023
15 | NC(=O)c1ccc(NC(=O)[C@H](C[C@@H]2CCCCO2)n2cc3c(cc2=O)-c2cc(Cl)ccc2C[C@@H](C(F)(F)F)OC3)cc1 (single isomer, unassigned) [Example 55] | 0.091 | 0.0005
16 | NC(=O)c1ccc(NC(=O)[C@H](C[C@@H]2COCCO2)n2cc3c(cc2=O)-c2cc(Cl)ccc2C[C@@H](C(F)(F)F)OC3)cc1F (single isomer, unassigned) [Example 57] | 0.31 | 0.0038
17 | NC(=O)c1ccc(NC(=O)[C@H](C[C@@H]2COCCO2)n2cc3c(cc2=O)-c2cc(Cl)ccc2C[C@@H](C(F)(F)F)OC3)cc1 (single isomer, unassigned) [Example 59] | 0.089 | 0.0009

Row | Structure (SMILES) | IC50 (human plasma kallikrein) [µM] | IC50 (human factor XIa) [µM]
18 | COCC[C@@H](C(=O)Nc1ccc(C(N)=O)c(F)c1)n1cc2c(cc1=O)-c1cc(Cl)ccc1C[C@@H](C(F)(F)F)OC2 (single isomer, unassigned) [Example 61] | 0.34 | 0.01
19 | COCC[C@@H](C(=O)Nc1ccc(C(N)=O)cc1)n1cc2c(cc1=O)-c1cc(Cl)ccc1C[C@@H](C(F)(F)F)OC2 (single isomer, unassigned) [Example 63] | 0.11 | 0.0025
20 | COCC[C@@H](C(=O)Nc1ccn2ncnc2c1)n1cc2c(cc1=O)-c1cc(Cl)ccc1C[C@@H](C(F)(F)F)OC2 (single isomer, unassigned) [Example 65] | 0.12 | 0.0068
21 | CO[C@@H](C)C[C@@H](C(=O)Nc1ccc(C(N)=O)cc1)n1cc2c(cc1=O)-c1cc(Cl)ccc1C[C@@H](C(F)(F)F)OC2 (single isomer, unassigned) [Example 67] | 0.22 | 0.0035
22 | CC[C@@H](C(=O)Nc1ccc(C(N)=O)cc1)n1cc2c(cc1=O)-c1c(ccc(Cl)c1F)C[C@@H](C(F)(F)F)OC2 (single isomer, unassigned) [Example 68] | 0.17 | 0.0069
23 | NC(=O)c1ccc(NC(=O)[C@H](C[C@@H]2CCCCO2)n2cc3c(cc2=O)-c2c(ccc(Cl)c2F)C[C@@H](C(F)(F)F)OC3)cc1 (single isomer, unassigned) [Example 69] | 0.055 | 0.0011
24 | CC[C@@H](C(=O)Nc1ccc(C(N)=O)cc1)n1cc2c(cc1=O)-c1c(ccc(Cl)c1Cl)C[C@@H](C(F)(F)F)OC2 (single isomer, unassigned) [Example 70] | 0.58 | 0.064
25 | CC[C@@H](C(=O)Nc1ccc(C(N)=O)c(F)c1)n1cc2c(cc1=O)-c1cc(Cl)ccc1C[C@@H](C)O[C@H]2C (single isomer, unassigned) [Example 71] | 0.225 | 0.0035
26 | C[C@@H]1Cc2ccc(Cl)cc2-c2cc(=O)n([C@@H](C[C@@H]3CCCCO3)C(=O)Nc3ccc(C(N)=O)c(F)c3)cc2[C@H](C)O1 (single isomer, unassigned) [Example 72] | 0.065 | 0.0025
27 | C[C@@H]1Cc2ccc(Cl)cc2-c2cc(=O)n([C@@H](C[C@@H]3CCCCO3)C(=O)Nc3ccc(C(N)=O)cc3)cc2[C@H](C)O1 (single isomer, unassigned) [Example 73] | 0.027 | 0.0008
28 | CO[C@@H](C)C[C@@H](C(=O)Nc1ccc(C(N)=O)cc1)n1cc2c(cc1=O)-c1cc(Cl)ccc1C[C@@H](C)O[C@H]2C (single isomer, unassigned) [Example 74] | 0.03 | 0.0014
29 | CC[C@@H](C(=O)Nc1ccc(C(N)=O)cc1)n1cc2c(cc1=O)-c1c(ccc(Cl)c1F)C[C@@H](C)O[C@H]2C (single isomer, unassigned) [Example 75] | 0.04 | 0.0059
30 | C[C@@H]1Cc2ccc(Cl)cc2-c2cc(=O)n([C@@H](C)C(=O)Nc3ccc(C(N)=O)cc3)cc2CO1 (single isomer, unassigned) [Example 76] | 0.19 | 0.0098
31 | C[C@@H](C(=O)Nc1ccc(C(N)=O)cc1)n1cc2c(cc1=O)-c1c(ccc(Cl)c1F)C[C@@H](C(F)(F)F)OC2 (single isomer, unassigned) [Example 77] | 0.22 | 0.0096
32 | CO[C@@H](C)C[C@@H](C(=O)Nc1ccc(C(N)=O)cc1)n1cc2c(cc1=O)-c1c(ccc(Cl)c1F)C[C@@H](C(F)(F)F)OC2 (single isomer, unassigned) [Example 78] | 0.074 | 0.0015
33 | CO[C@@H](C)C[C@@H](C(=O)Nc1ccc(C(N)=O)cc1)n1cc2c(cc1=O)-c1c(ccc(Cl)c1F)C[C@@H](C)O[C@H]2C (single isomer, unassigned) [Example 79] | 0.25 | 0.026
